{"source": "patent US20210353612A1", "about": "“HYPOXIA-INDUCIBLE FACTOR PROLYL HYDROXYLASE INHIBITORS FOR TREATING AGING-RELATED CONDITIONS” (BioAge Labs, Inc., priority 2020, published 2021)", "key": {"aged C57BL/6 mice": {"system": "aged C57BL/6 mice", "assay": "Hemoglobin levels in aged mice (Hb assay kit ab234046)", "type": "in vivo, mouse", "details": "for Hemoglobin concentration vs vehicle control (FIG. 4B): after 14 days of treatment; for Hemoglobin levels in aged mice, Mean: 27-month-old mice", "description": "(§1) In this study, aged mice were treated with BGE-117 daily for 35 days. Daily voluntary running wheel activity levels, as well as hemoglobin levels at Days 0 and 14, were measured. The effects of the BGE-117 compound were examined for the reversal of frailty in mice.\nThe BGE-117 compound for the TA-1 treatment group was formulated in 0.5% carboxymethylcellulose (CMC) and 0.5% Tween 80 and constituted at a concentration of 1 mg/ml. The test article for the Control group included 0.5% CMC and 0.5% Tween 80, acting as a vehicle control. Mice were treated with BGE-117 at a concentration of 1 mg/ml at a volume of 300 μl/mouse (0.3 ml/mouse), for 0.3 mg/dose (TA-1); control group mice (TA-2) were administered a vehicle control at a dose volume of 0.3 ml/mouse. Administration was oral, once per day.\nUsing a 4 mm lancet, approximately 150 microliters of whole blood was collected from the submental vein, utilizing the submandibular vein as back-up. Blood was collected using 500 microliter Serum Separator tubes and stored at room temperature for 45 minutes or until clotted. Blood was centrifuged at 4000 RPM for 10 minutes in at 4° C. If the serum was not analyzed immediately, the serum was apportioned into 0.5 ml aliquots, stored, and transported at −80° C.\nThe following procedure was performed for the hemoglobin assay: • 1. Mouse blood was collected in Li-heparin tubes. • 2. Blood was briefly vortexed and 2 μl of whole blood was transferred into a 96-well clear plate containing 18 μl of distilled water. • 3. 160 μl sample buffer was added to the 96-well clear plate from the Hemoglobin Assay Kit (ab234046). • 4. 20 μl 1N NaOH was added to blood samples to the diluted sample in each well. • 5. The standard curve was established with included hemoglobin standard (ab234046) as per the manufacturer's instruction. • 6. The reaction was incubated at room temperature for 8-15 minutes. Read absorbance at 575 nm in end point mode. • 7. Hb concentration was calculated as recommended by the assay kit."}, "[1]": {"system": "patients with chronic kidney disease and normal healthy human volunteers", "details": "patients with chronic kidney disease and normal healthy human volunteers (Shinfuku et al. 2018); cited from earlier work"}, "[2]": {"system": "27-month-old C57BL/6 mice", "assay": "Activity monitoring wheel test (voluntary running wheel activity) in aged mice", "type": "in vivo, mouse", "details": "27-month-old mice; 0.3 mg/dose PO once daily for 35 days", "description": "as §1\nThe animals were housed with access to voluntary running wheels that wirelessly transmit running data to a computer for analysis. The outcome of interest was the median number of daily wheel rotations generated by mice in each group (n=9 per group), and this is shown as the dots in FIG. 6 (one median number of rotations per day per group) and also as the numbers on the right. […]\nThe first day of the study (Study Day 1) started with Animal Acclimation, followed by the BGE-117 treatment start date on Study Day 33 (Phase Day 1). […] For the frailty portion of the study, mice were assessed using an activity monitoring wheel which was monitored passively with a computer monitoring system. […]\nThe activity monitoring wheel is a running disk that monitors rotations. […] Activity was monitored passively and wirelessly with a computer monitoring system. Running wheel activity levels were monitored daily. […]\nThe wheels were electronically monitored and the number of rotations of the wheel per minute was recorded continuously throughout the entire study."}, "5/6 nephrectomized rats": {"system": "5/6 nephrectomized rats", "details": "5/6 nephrectomized rats (Kato et al. 2019); cited from earlier work"}, "[3]": {"system": "23-month-old and 27-month old C57BL/6 mice with anemia of inflammation", "assay": "Hemoglobin in aged mice with anemia of inflammation (elevated TNFα and/or IL-6), BGE-117 study", "type": "in vivo, mouse", "details": "10 mg/kg PO once daily", "description": "The study included 23-month-old mice (n=39) (23-months old at the start of the experiment, and 24 months old at the end since the experiment lasted 35 days) and 27-month old mice (n=14) (27-months old at the start of the experiment, and 28 months old at the end since the experiment lasted 35 days) from strain C57BL/6 that were administered BGE-117 or vehicle once daily for a duration of […].\nOnce the 23 month old mice developed anemia of inflammation at 23-months (±2 weeks), mice were randomly divided into two groups: Anemia of inflammation vehicle-treated Control group 1 (“23-month Control Group” (CG1)) (n=18) and Anemia of inflammation BGE-117-treated group (“BGE-117 23-month Test Group” (BGE-117 TG1)) (n=21), while ensuring that the mean hemoglobin levels and inflammatory cytokine levels remained balanced among the groups.\nOnce the 27-month old mice developed anemia of inflammation at 27-months (±2 weeks), mice were randomly divided into two groups: Anemia of inflammation vehicle-treated Control group (“27-month Control Group” (CG2)) (n=8), Anemia of inflammation BGE-117-treated group (“BGE-117 27-month Test Group” (BGE-117 TG2)) (n=6), while ensuring that the mean hemoglobin levels remained balanced among the groups. The mice in the two “Anemia of inflammation” pre-treatment (baseline) groups had high (130% or higher of the median values) TNFα and/or IL-6 as indicated in FIGS. 11-12.\nThe 23-month old and 27-month old Test Groups BGE-117 TG1 and BGE-117 TG2 were administered 10 mg/kg of BGE-117 once daily for 5 weeks by oral gavage in 0.5% carboxymethylcellulose (CMC) and 0.5% Tween 80. The 23-month old and 27-month old Control Groups CG1 and CG2 were administered vehicle of 0.5% carboxymethylcellulose (CMC) and 0.5% Tween 80 by oral gavage on the same schedule.\nBlood was collected from the submandibular vein at the start of the study immediately before drug administration, and after 14 days of drug administration. The blood samples was mixed with EDTA and analyzed using the Hemoglobin assay kit from Abcam (ab234046) with modification. The signal was read on Molecular Device SpectraMax 340PC-384. The inflammatory markers were measured by Luminex Mouse Magnetic Assay (5-PLEX, LXSAMSM-05 by R&D Systems) on Luminex 200. At day 35 post drug initiation the mice were anesthetized with isoflurane and blood samples were collected from abdominal vein."}, "[4]": {"system": "patients over 65 years of age with UAA", "assay": "Phase 2a, 12-week, randomized, double-blind, placebo-controlled study in Unexplained Anemia of Aging (UAA)", "type": "in vivo, human", "details": "elderly UAA subjects; 4-24 mg once daily, 12 weeks", "source_text": "Study Title: A Phase 2a, 12-Week, Randomized, Double-Blind, Placebo-Controlled, Multi-Center Study to Evaluate Efficacy and Safety of BGE-117 in the Treatment of Unexplained Anemia of Aging (UAA)\nThis is a Phase II, randomized, double-blind, placebo-controlled multi-center study to compare the safety of BGE-117 when administered in patients over 65 years of age for 12 weeks. The study consists of 3 periods: Screening, Treatment, and Follow-up. FIG. 16 provides a summary of the study design.\nThe study size for this study is 160 evaluable subjects (80 subjects randomized to BGE-117 and 80 subjects randomized to placebo). The subject's maximum duration of participation is approximately 154 days. This includes 6 weeks for the Screening Period, 12 weeks for the Treatment Period, and 4 weeks for the Follow-up Period.\nSubjects are advised to take IP with water once a day, recommended that the subject take the study medication 1 hour before their morning meal, starting on Visit 3 (Day 1), for 84 consecutive days, through Visit 15 (Day 85). Capsules are taken whole, not crushed, chewed, or cut.\nThis study is a double-blind, placebo-controlled study. Subjects are randomized to receive either of the following: • BGE-117: a hypoxia inducible factor-prolyl hydroxylase (HIF-PHD) inhibitor in 4 mg and 12 mg capsules; or • Placebo: matching capsule without active drug • The starting dose and maximum dose for BGE-117/placebo is based on a subject's screening renal function results: • The starting dose for subjects with an estimated glomerular filtration rate (eGFR) ≥60 mL/min/1.73 m2 is 12 mg/placebo. The maximum dose is 24 mg/placebo. • The starting dose for subjects with an eGFR between ≥30 and <60 mL/min/1.73 m^2is 4 mg/placebo. The maximum dose is 16 mg/placebo.\nFrom Visits 5 through 11 (Days 15 through 57), dose adjustment opportunities are scheduled approximately every 14 days to achieve and maintain Hb within the target range. Dose adjustments are based on the local laboratory's results, with the goal of titrating Hb levels to a range of ≥12.0 to ≤13.0 g/dL. In the event of excessively rapid Hb increases or unacceptably high Hb levels or trends, in the investigator's opinion, the dose may be adjusted at any time, even on visits without a dose adjustment review.\n• Improvement in Hb at Visit 15 (Day 85/EOTP) compared to baseline\n• Improvement in FACIT-Fatigue Score at Visit 15 (Day 85/EOTP) compared to baseline\n• Change in Hb at Visits 7, and 11 (Days 29, and 57) and Follow-up Visit compared to baseline • Improvement in FACIT-Fatigue score at Visits 7 and 11 (Day 29 and 57) and the Follow-up Visit compared to baseline • Change in SPPB Score at Visits 7, 11, and 15 (Day 29, 57, and 85), and Follow-up Visit compared to baseline • Change in 6MWT Distance at Visits 7, 11, and 15 (Days 29, 57, and 85) and the Follow-up Visit compared to baseline • Change in SF-36 at Visits 7, 11, and 15 (Days 29, 57, and 85) and the Follow-up Visit compared to baseline • Evaluate the starting dose of BGE-117 in the treatment of UAA for subjects with eGFR ≥60 mL/min/1.73 m^2 and subjects with eGFR ≥30 and <60 mL/min/1.73 m^2\nChange in Hb is the primary endpoint and is a direct assessment of the disease of unexplained anemia in aging patients. Changes in FACIT-Fatigue is the key secondary endpoint. Analysis of both of these endpoints is an ANCOVA with baseline covariates. Testing for FACIT-Fatigue is done only after achieving statistical significance for the change in Hb."}, "[5]": {"system": "HIF prolyl hydroxylase (PHD) 1/2/3", "details": "cited from earlier work"}}, "note": "Entries after “also recorded” stand apart in the source; their conditions may differ.", "data": [{"smiles": "O=C(O)CNC(=O)C1=C(O)CCN(Cc2ccc(Oc3ccc(Cl)cc3)nc2)C1=O", "note": "[BGE-117, N-[(1{[6-(4-chlorophenoxy)-3-pyridinyl]methyl}-4-hydroxy-2-oxo-1,2,5,6-tetrahydro-3-pyridinyl)carbonyl]glycine]", "values": [{"measurement": "Hemoglobin concentration vs vehicle control (FIG. 4B)", "setting": "aged C57BL/6 mice; 23-month old mice", "result": "significant increase of hemoglobin levels"}, {"measurement": "Hemoglobin concentration vs vehicle control (FIG. 4B)", "setting": "aged C57BL/6 mice; 27-month old mice", "result": "significant increase of hemoglobin levels"}, {"measurement": "Hemoglobin levels in aged mice, Mean", "setting": "aged C57BL/6 mice; Week 0 (before treatment), BGE-117 group", "result": 10.98, "unit": "g/dL"}, {"measurement": "Hemoglobin levels in aged mice, Mean", "setting": "aged C57BL/6 mice; Week 2, 0.3 mg/dose PO once daily", "result": 19, "unit": "g/dL"}, {"measurement": "EPO production", "setting": "[1]", "result": "increase EPO production"}, {"measurement": "Voluntary running wheel activity (median daily wheel rotations) vs age-matched controls", "setting": "[2]", "result": "statistically significant (p<0.001) increase in voluntary activity; also recorded: significantly increased activity"}, {"measurement": "Hemoglobin levels", "setting": "5/6 nephrectomized rats", "result": "increase hemoglobin levels"}, {"measurement": "Hb levels of Test Groups vs Control Groups administered vehicle alone", "setting": "[3]; 23-month old and 27-month old Test Groups", "result": "significantly increased Hb levels"}, {"measurement": "Hemoglobin levels before vs after treatment (FIG. 9B)", "setting": "[3]; 23-month-old mice with elevated TNFα, after two weeks", "result": "significant increases in hemoglobin levels"}, {"measurement": "Hemoglobin levels before vs after treatment (FIG. 10B)", "setting": "[3]; 23 month old mice with elevated IL-6, after two weeks", "result": "Highly significant improvements in hemoglobin levels"}, {"measurement": "Hemoglobin levels before vs after treatment (FIG. 12B)", "setting": "[3]; 27-month old mice with elevated IL-6, after two weeks", "result": "Significant improvements in hemoglobin levels"}, {"measurement": "Hemoglobin levels before vs after treatment (FIG. 11B)", "setting": "[3]; 27-month-old mice with elevated TNFα, after two weeks", "result": "Significant improvements in hemoglobin levels"}, {"measurement": "Activity levels and sleep quality compared to baseline", "setting": "[4]", "result": "Improve activity levels and sleep quality"}, {"measurement": "Fatigue (FACIT-Fatigue Score) compared to baseline", "setting": "[4]", "result": "Reduce fatigue"}, {"measurement": "Hemoglobin levels compared to baseline", "setting": "[4]", "result": "Increase hemoglobin levels"}, {"measurement": "Oxygen delivery, mobility, QOL, and energy levels", "setting": "[4]", "result": "Improve oxygen delivery, mobility, QOL, and energy levels"}, {"measurement": "Physical activity (SPPB scores, 6MWT, grip strength test) compared to baseline", "setting": "[4]", "result": "Improve physical activity"}, {"measurement": "HIF prolyl hydroxylase inhibition, type", "setting": "[5]", "result": "competitive HIF prolyl hydroxylase (PHD) 1/2/3 pan-inhibitor"}]}]}
